Source: US11266170B2, “Sweetener and flavor compositions, methods of making and methods of use thereof” (EPC Natural Products Co., Ltd., priority 2018, dated 2022)
Residues, ends and D or L forms follow the SMILES beside them.

Experiments:
3 persons = assay: Sensory analysis of odor/smell, color and taste of reacted samples (Examples 55-62); assay type: in vivo
Procedure: The reaction partners were dissolved in water and then warmed glycerin (60° C.) was added. […]
The taste test was performed as in Example 38.
All samples were assessed at 22° C. after the Maillard reaction was stopped by placing the sealed vials in an ice bath. After 20 minutes in the ice bath the sealed vials were put in a water bath set to 22° C.
The odor/smell was assessed independently by 3 persons; the final description was agreed after discussion. […] The taste was assessed independently by 3 persons either in the original samples or after appropriate dilution to achieve relevant concentrations of sugars and steviol-glycosides (i.e. 5-9% SE); the final description was agreed after discussion.

[1] = cited from earlier work; for times sweeter than sucrose: relative to sucrose / sugar, the sweetness depends on the tested concentration; for Sweetness by food energy / Sweetness by weight: compared to sucrose
[2] = negative controls (no carbohydrate source), 10 ml glycerin/water 9:1, 100 °C, 40 minutes
[3] = Example 57, before reaction, 10 ml KH2PO4, pH 7.8
[4] = Example 57, after reaction, 10 ml KH2PO4, pH 7.8, 2.5 h, 120 °C

With `C[C@H](N)C(=O)O` [8.91 mg Ala] the Smell (3 persons; [2]) was “Neutral, slightly Agar” and the Taste (3 persons; [2]) was “Slightly sweet”.

With `OC[C@H]1OC(O)[C@H](O)[C@@H](O)[C@@H]1O` (stereo partly drawn) [9 mg Glucose] the Smell (3 persons; [3]) was “neutral” and the Taste (3 persons; [3]) was “Sweet”.

In the case of `N[C@@H](CO)C(=O)O` [10.5 mg Ser], the Smell (3 persons; [2]) is reported as “Lotus flower” and the Taste (3 persons; [2]) is reported as “Slightly sweet”.

For `O=C(O)[C@@H]1CCCN1` [11.5 mg Pro], the Taste (3 persons; [2]) was “Slightly sweet”.

In the case of `C[C@@H](O)[C@H](N)C(=O)O` [11.91 mg Thr], the Smell (3 persons; [2]) is reported as “Vanilla, butter” and the Taste (3 persons; [2]) is reported as “Slightly sweet”.

With `N[C@@H](CS)C(=O)O` [12.1 mg Cys] the Smell (3 persons; [2]) was “Unpleasant (sulfur)” and the Taste (3 persons; [2]) was “Slightly sweet”.

For `CC[C@H](C)[C@H](N)C(=O)O` [13.11 mg Ile], the Smell (3 persons; [2]) was “Coffee” and the Taste (3 persons; [2]) was “Slightly sweet”.

In the case of `NCCCC[C@H](N)C(=O)O` [14.7 mg Lys], the Smell (3 persons; [2]) is reported as “Popcorn” and the Taste (3 persons; [2]) is reported as “Slightly sweet”.

With `CSCC[C@H](N)C(=O)O` [14.9 mg Met] the Smell (3 persons; [2]) was “Sulfuric” and the Taste (3 persons; [2]) was “Slightly sweet”.

In the case of `N[C@@H](Cc1ccccc1)C(=O)O` [16.5 mg Phe], the Smell (3 persons; [3]) is reported as “neutral”, the Taste (3 persons; [3]) is reported as “No taste” and the Smell (3 persons; Example 58, after reaction, 10 ml KH2PO4, pH 7.8, 2.5 h, 120 °C) is reported as “Caramel, burnt”. The Taste (3 persons; Example 58, after reaction, after dilution 1:20) was “Sweet”, the Smell (3 persons; Example 58, before reaction, 10 ml KH2PO4, pH 7.8) was “Neutral” and the Taste (3 persons; Example 58, before reaction, after dilution 1:20) was “No taste”. The Smell (3 persons; [2]) was “Bloomy, caramel” and the Taste (3 persons; [2]) was “Slightly sweet”.

For `N[C@@H](Cc1ccc(O)cc1)C(=O)O` [18.1 mg Tyr], the Smell (3 persons; [2]) was “neutral” and the Taste (3 persons; [2]) was “Slightly sweet”.

With `N[C@@H](Cc1c[nH]c2ccccc12)C(=O)O` [20.42 mg Try] the Smell (3 persons; [2]) was “Unpleasant (fecal)” and the Taste (3 persons; [2]) was “Slightly sweet”.

In the case of `COC(=O)[C@H](Cc1ccccc1)NC(=O)[C@@H](N)CC(=O)O` [Aspartame] (H-Asp-Phe-OMe), the “times sweeter than sucrose” value [1] is listed as 160-200 times.

For `OC[C@@H](O)[C@@H](O)CO` [Erythritol], the “Sweetness by food energy” value [1] is given as 14 and the Sweetness by weight [1] is given as 0.6-0.7.

With `O=C[C@H](O)[C@@H](O)[C@H](O)[C@H](O)C(=O)O` [Glucuronic Acid] the Smell (3 persons; [4]) was “burnt bread” and the Taste (3 persons; [4]) was “Bitter”.

For `O=C1O[C@@H]2[C@@H](O)[C@H](O)O[C@@H]2C1O` (stereo partly drawn) [Glucuronolactone], the Smell (3 persons; [4]) was “Burnt sugar” and the Taste (3 persons; [4]) was “Bitter”.

In the case of `OCC(O)CO` [Glycerol], the “Sweetness by food energy” value [1] is given as 0.55 and the Sweetness by weight [1] is given as 0.6.

In the case of `CC1(C)[C@@H](O[C@H]2O[C@H](C(=O)O)[C@@H](O)[C@H](O)[C@H]2O[C@@H]2O[C@H](C(=O)O)[C@@H](O)[C@H](O)[C@H]2O)CC[C@]2(C)[C@H]3C(=O)C=C4[C@@H]5C[C@@](C)(C(=O)O)CC[C@]5(C)CC[C@@]4(C)[C@]3(C)CC[C@@H]12` [Glycyrrhizin], the Sweetness by weight [1] is given as 30-50.

For `OC[C@H]1O[C@H](OC[C@H]2OC(O)(CO)[C@@H](O)[C@@H]2O)[C@H](O)[C@@H](O)[C@@H]1O` (stereo partly drawn) [Isomaltulose], the Sweetness by weight [1] is listed as 0.5.

For `OC[C@@H](O)[C@@H](O[C@@H]1O[C@H](CO)[C@H](O)[C@H](O)[C@H]1O)[C@H](O)[C@@H](O)CO` [Lactitol], the “Sweetness by food energy” value [1] is given as 0.8 and the Sweetness by weight [1] is given as 0.4.

In the case of `OC[C@@H](O)[C@@H](O[C@H]1O[C@H](CO)[C@@H](O)[C@H](O)[C@H]1O)[C@H](O)[C@@H](O)CO` [Maltitol], the “Sweetness by food energy” value [1] is given as 1.7 and the Sweetness by weight [1] is given as 0.75-0.9.

For `OC[C@@H](O)[C@@H](O)[C@H](O)[C@H](O)CO` [Mannitol], the “Sweetness by food energy” value [1] is listed as 1.2, the Sweetness by weight [1] is listed as 0.5 and the “times sweeter than sucrose” value [1] is listed as 0.55-0.65 times.

For `N[C@@H](C[C@@](O)(Cc1c[nH]c2ccccc12)C(=O)O)C(=O)O` [Monatin], the Sweetness by weight [1] is given as 3,000.

For `COc1ccc(CCC(=O)c2c(O)cc(O[C@@H]3O[C@H](CO)[C@@H](O)[C@H](O)[C@H]3O[C@@H]3O[C@@H](C)[C@H](O)[C@@H](O)[C@H]3O)cc2O)cc1O` [NHDC, Neohesperidin dihydrochalcone], the “times sweeter than sugar at threshold concentrations” value ([1]; at threshold concentrations) is given as 1500-1800 times and the “times sweeter than sugar weight-for-weight” value ([1]; weight-for-weight) is given as “about 340 times”.

In the case of `C[C@@H]1O[C@@H](O[C@H]2O[C@@H]([C@@H](C)C3CC[C@@H]4[C@H]5CC(=O)[C@@H]6C[C@H](O[C@@H]7O[C@H](CO)[C@@H](O)[C@H](O)[C@H]7O[C@@H]7O[C@@H](C)[C@H](O)[C@@H](O)[C@H]7O)CC[C@]6(C)[C@@H]5CC[C@]34C)CC[C@@H]2C)[C@H](O)[C@H](O)[C@H]1O` (stereo partly drawn) [Osladin], the Sweetness by weight [1] is listed as 500.

For `O=C(CO)[C@H](O)[C@H](O)[C@H](O)CO` [Psicose], the Sweetness by weight [1] is given as 0.7.

For `C=C1C[C@@]23CC[C@H]4[C@@](C)(CCC[C@@]4(C)C(=O)O[C@@H]4O[C@H](CO)[C@@H](O)[C@H](O)[C@H]4O)[C@@H]2CC[C@]1(O[C@@H]1O[C@H](CO)[C@@H](O)[C@H](O)[C@H]1O)C3` [Rubusoside], the “times sweeter than sucrose” value [1] is given as 200 times.

In the case of `OC[C@@H](O)[C@@H](O)[C@H](O)[C@@H](O)CO` [Sorbitol], the “Sweetness by food energy” value [1] is given as 0.9 and the Sweetness by weight [1] is given as 0.6.

For `O=C(CO)[C@@H](O)[C@@H](O)[C@H](O)CO` [Tagatose], the “Sweetness by food energy” value [1] is listed as 2.4 and the Sweetness by weight [1] is listed as 0.92.

In the case of `C[C@H](CC[C@@H](O[C@@H]1O[C@H](CO)[C@@H](O)[C@H](O)[C@H]1O[C@@H]1O[C@H](CO)[C@@H](O)[C@H](O)[C@H]1O)C(C)(C)O)[C@H]1CC[C@@]2(C)[C@H]3CC=C4[C@@H](CC[C@H](O[C@@H]5O[C@H](CO[C@@H]6O[C@H](CO)[C@@H](O)[C@H](O)[C@H]6O)[C@@H](O)[C@H](O)[C@H]5O)C4(C)C)[C@]3(C)[C@H](O)C[C@]12C` [mogroside IV], the “times sweeter than sucrose” value [1] is given as 126 times.

For `C[C@H](CC[C@@H](O[C@@H]1O[C@H](CO[C@@H]2O[C@H](CO)[C@@H](O)[C@H](O)[C@H]2O)[C@@H](O)[C@H](O)[C@H]1O[C@@H]1O[C@H](CO)[C@@H](O)[C@H](O)[C@H]1O)C(C)(C)O)[C@H]1CC[C@@]2(C)[C@@H]3CC=C4[C@@H](CC[C@H](O[C@@H]5O[C@H](CO[C@@H]6O[C@H](CO)[C@@H](O)[C@H](O)[C@H]6O)[C@@H](O)[C@H](O)[C@H]5O)C4(C)C)[C@]3(C)[C@H](O)C[C@]12C` [mogroside V], the “times sweeter than sucrose” value [1] is listed as 256-344 times.

For `O=S(=O)([O-])NC1CCCCC1.[Na+]` [sodium cyclamate], the “times sweeter than sucrose” value [1] is given as “about 30 times”.

In the case of `OC[C@H]1O[C@H](O[C@]2(CCl)O[C@H](CCl)[C@@H](O)[C@@H]2O)[C@H](O)[C@@H](O)[C@H]1Cl` [sucralose], the “times sweeter than sucrose” value [1] is listed as “about 600 times”.

In the case of “Brazzein (QDKCKKVYENYPVSKCQLANQCNYDCKLDKHARSGECFYDEKRNLQCICDYCEY; UniProt P56552 1-54, looked up) [Protein]”, the Sweetness by weight [1] is given as 500-2000.

For Curculin, the Sweetness by weight [1] is given as 430-2070.

For Inulin, the Sweetness by weight [1] is given as 0.1.

In the case of Isomalt, the “Sweetness by food energy” value [1] is given as 0.9-1.3 and the Sweetness by weight [1] is given as 0.45-0.65.

In the case of Mabinlin, the Sweetness by weight [1] is listed as 100.

For Maltodextrin, the Sweetness by weight [1] is given as 0.15.

For Monellin, the Sweetness by weight [1] is given as 800-2,000.

For Pentadin, the Sweetness by weight [1] is given as 500.

For Polydextrose, the Sweetness by weight [1] is listed as 0.1.

B1: Miraculin (protein, UniProt P13087 30-220, looked up)
Miraculin: DSAPNPVLDIDGEKLRTGTNYYIVPVLRDHGGGLTVSATTPNGTFVCPPRVVQTRKEVDHDRPLAFFPENPKEDVVRVSTDLNINFSAFMPCRWTSSTVWRLDKYDESTGQYFVTIGGVKGNPGPETISSWFKIEEFCGSGFYKLVFCPTVCGSCKVKCGDVGIYIDQKGRRRLALSDKPFAFEFNKTVYF
For B1, the “Notes (taste)” value ([1]; result in words) is given as “A protein that does not taste sweet by itself”.
